Columns and labels:
Type in all cases: biochemical
Details in all cases: lyophilized nitrilase lysate added; OPA or NDA as fluorogenic reagent
[1] = test system: nitrilase of SEQ ID NO: 56; assay: OPA/NDA fluorescence assay of nitrile hydrolysis by nitrilase
Text: (§1) FIG. 5C illustrates detection curves for hydroxylpivaldehyde aminonitrile (HPA), HPA combined with a nitrilase of SEQ ID NO: 56(“HPA+SEQ ID NO: 56”), dimethylbutanal aminonitrile (DMB), and DMB combined with a nitrilase of SEQ ID NO: 60 (“DMB+SEQ ID NO: 60”), all using OPA as the fluorogenic reagent.
(§2) FIG. 5D illustrates detection curves for HPA, HPA combined with a nitrilase of SEQ ID NO: 56 (“HPA+SEQ ID NO: 56”), DMB, and DMB combined with a nitrilase of SEQ ID NO: 60 (“DMB+SEQ ID NO: 60”), all using NDA as the fluorogenic reagent.
(§3) In assays using certain substrates, naphthalene dicarboxaldehyde (NDA) was substituted for OPA as the fluorescing agent. Calibration curves for APA, PAH, HPA and DMB, with either OPA or NDA were constructed (see FIGS. 5A, 5B, 5C and 5D). To determine sensitivity and background fluorescence, lyophilized nitrilase lysates with SEQ ID NOS: 190, 56, and 60 were added, respectively.

[2] = test system: nitrilase having SEQ ID NO: 190; assay: OPA/NDA fluorescence assay of nitrile hydrolysis by lyophilized nitrilase lysate
Text: FIG. 5A illustrates detection curves for assays of pivaldehyde aminonitrile (PAH), PAH combined with a lyophilized nitrilase lysate having a SEQ ID NO: 190 (“PAH+SEQ ID NO: 190”), acetophenone aminonitrile (APA), and APA combined with a lyophilized nitrilase lysate having a SEQ ID NO: 190 (“APA+SEQ ID NO: 190”), all using OPA as the fluorogenic reagent.
FIG. 5B illustrates detection curves for PAH, PAH combined with a lyophilized nitrilase lysate having a SEQ ID NO: 190 (“PAH+SEQ ID NO: 190”), APA, and APA combined with a lyophilized nitrilase lysate having a SEQ ID NO: 190 (“APA+SEQ ID NO: 190”), all using naphthalene dicarboxyaldehyde (NDA) as the fluorogenic reagent.
as §3

[3] = test system: nitrilase of SEQ ID NO: 60; assay: OPA/NDA fluorescence assay of nitrile hydrolysis by nitrilase
Text: as §1, §2, §3

CC(C)(CO)C(N)C#N (stereo not drawn) [HPA, hydroxylpivaldehyde aminonitrile]
hydrolysis of the enzyme substrate [1]: Hydrolysis was detected

CC(N)(C#N)c1ccccc1 (stereo not drawn) [APA, acetophenone aminonitrile]
hydrolysis of the enzyme substrate [2]: Hydrolysis was detected

dimethylbutanal aminonitrile [DMB]
hydrolysis of the enzyme substrate [3]: Hydrolysis was detected
